Data published in patent publication US20220265685A1, “METHODS AND COMPOSITIONS FOR IMPROVING COGNITIVE FUNCTION” (priority 2010, published 2022).
Read-outs that look alike come from different tables or passages of the source.

How the values were obtained:
[1] = system: aged-impaired (AI) rats; experiment: Radial Arm Maze (RAM) task, spatial memory retention of aged-impaired rats; type: in vivo, Long-Evans rats
Method: FIG. 1 depicts the effects of administering levetiracetam on the spatial memory retention of ten aged-impaired rats (AI) in an eight-arm Radial Arm Maze (RAM) test. Six treatment conditions are employed: vehicle control, levetiracetam (1.25 mg/kg/day), levetiracetam (2.5 mg/kg/day), levetiracetam (5 mg/kg/day), levetiracetam (10 mg/kg/day) and levetiracetam (20 mg/kg/day). In the RAM task used, there is a one-hour delay between presentation of a subset of arms (5 arms available and 3 arms blocked) and completion of the eight-arm win-shift task (eight arms available). Rats are pre-treated 30-40 minutes before daily trials with a one-time drug/control treatment. The number of errors made by the rats during the retention phase is used as a measure of spatial memory retention. Errors are defined as instances when rats enter an arm from which food has already been retrieved in the pre-delay component of the trial or when rats re-visit an arm in the post-delay session that had already been visited. Paired t-tests are used to compare the number of errors between different doses of levetiracetam and vehicle control.
FIG. 2 depicts the effects of administering donepezil only and administering a combination of donepezil and levetiracetam on the spatial memory retention of eight aged-impaired rats (AI) in an eight-arm Radial Arm Maze (RAM) test. Four treatment conditions are employed: vehicle control, donepezil only (1 mg/kg/day), donepezil (2 mg/kg/day), and a combination of donepezil (1 mg/kg/day) and levetiracetam (2.5 mg/kg/day). In the RAM task used, there is a two-hour delay between presentation of a subset of arms (5 arms available and 3 arms blocked) and completion of the eight-arm win-shift task (eight arms available). Rats are pre-treated 30-40 minutes before daily trials with a one-time drug/control treatment. The number of errors made by the rats during the retention phase is used as a measure of spatial memory retention. Errors are defined as instances when rats enter an arm from which food has already been retrieved in the pre-delay component of the trial or when rats re-visit an arm in the post-delay session that have already been visited. Paired t-tests are used to compare the number of errors between different doses of drug treatment and vehicle control.
Aged, male Long-Evans rats were obtained at 8 to 9 months of age from Charles River Laboratories (Raleigh, N.C.) and housed in a vivarium until 24 to 26 months of age. All rats were individually housed at 25° C. and maintained on a 12 h light/dark cycle. Food and water were provided ad libitum unless noted otherwise. The rats were examined for health and pathogen-free status throughout the experiments, as well as necropsies at the time of killing.
All rats were screened in a standardized assessment of spatial cognition. This background assessment used the above-described well-established MWM protocol. […] The selected AI rats were tested for their memory of new spatial information in a Radial Arm Maze (RAM) task, under different drug/control treatment conditions: vehicle control, donepezil only, levetiracetam only, and a combination of donepezil and levetiracetam. The RAM task also extended the behavioral assessment to spatial memory using appetitive motivation. We used a protocol that allowed within-subject assessment across drugs at different doses and in combinations (Koh et al., Neuropsychopharmacology, epub. 1-10, (2009)).
The radial maze consisted of eight arms projecting from each side of an octagonal center platform, with food well located at the distal end of each arm. Plexiglasm blocks could be positioned to prevent entry into any arm. Extra-maze cues were provided in the room surrounding the maze and illumination was provided by an overhead light.

[2] = system: aMCI subjects; experiment: explicit 3-alternative forced choice task (lure stimuli), performance; type: in vivo, human; conditions: levetiracetam 125 mg twice a day for two weeks vs placebo, p=0.039
From the text: There are various tests known in the art for assessing cognitive function in humans, for example and without limitation, the clinical global impression of change scale (CIBIC-plus scale); the Mini Mental State Exam (MMSE); the Neuropsychiatric Inventory (NPI); the Clinical Dementia Rating Scale (CDR); the Cambridge Neuropsychological Test Automated Battery (CANTAB); the Sandoz Clinical Assessment-Geriatric (SCAG), the Buschke Selective Reminding Test (Buschke and Fuld, 1974); the Verbal Paired Associates subtest; the Logical Memory subtest; the Visual Reproduction subtest of the Wechsler Memory Scale-Revised (WMS-R) (Wechsler, 1997); or the Benton Visual Retention Test. […]
(§1) As described above, the drug treatment period is the two weeks preceding Visit 1 or 2 (with the two week period preceding the other Visit being the placebo phase). For the subjects receiving the drug treatment, half a scored 250 mg tablet of levetiracetam is used to achieve a dose of […], which is approximately 3.6 mg/kg/day (assuming an average adult human weight of 70 kg).
The activity of the subject's medial temporal lobe is measured by functional MRI during the subject's participation in an explicit 3-alternative forced choice task, where participants view novel, repeated and similar (“lure”) stimuli. […]

[3] = system: aMCI subjects; experiment: fMRI activity of medial temporal lobe subregions during the explicit 3-alternative forced choice task; type: in vivo, human; conditions: levetiracetam 125 mg twice a day for two weeks vs placebo
Method: (§2) A within-subjects trial of 8 weeks duration, involving 17 amnestic MCI (aMCI) subjects and 17 age-matched controls with a low dose treatment of levetiracetam is conducted. During the course of the study, each aMCI subject receives both drug and placebo treatments separately in two periods of two weeks each, with the order of treatments among different aMCI subjects counterbalanced (see FIG. 3). Age-matched control subjects treated with placebo serve as a further control. Cognitive testing and fMRI imaging data are obtained from the subjects after each two week period of drug/placebo treatment.
as §1
Imaging data are obtained through high-resolution methods developed in the Stark laboratory. […]
Group data are analyzed using a two-way Analysis of Variance (ANOVA) with trial types and group as fixed factors, and subject as a random factor nested within group. […]

[4] = system: aMCI subjects; experiment: neuropsychological assessment (common cognitive tests); type: in vivo, human; conditions: levetiracetam 125 mg twice a day for two weeks
Method: as §2
All participants undergo neuropsychological evaluation at the time of assessment for treatment efficacy (Visits 1 and 2), as well as at the Baseline Visit.
The evaluation occurs outside of the scanner and includes the Buschke Selective Reminding Test (Buschke and Fuld, 1974) and the Verbal Paired Associates subtest, the Logical Memory subtest, the Visual Reproduction subtest of the Wechsler Memory Scale-Revised (WMS-R) (Wechsler, 1997), and the Benton Visual Retention Test, as these tasks are particularly sensitive to medial temporal lobe function and early memory problems (Marquis et al., 2002 and Masur et al., 1994). Additionally, subjects are asked to complete tests of more general cognitive function such as tests to assess general mental status, executive function, attention and general naming ability. All neuropsychological tests are administered by a trained research assistant during a 60-minute session. As the three neuropsychological assessments in this study occur within a time period of 8 weeks, different versions of the neuropsychological tests are used to minimize test specific practice effects. Breaks are provided to the subject as needed.
as §1

[5] = cited from earlier work
[6] = biological target: synaptic vesicle protein 2A (SV2A) (Homo sapiens, UniProt Q7L0J3); conditions: Noyer et al. 1995; Fuks et al. 2003; Lynch et al. 2004; Gillard et al. 2006; cited from earlier work
synaptic vesicle protein 2A (SV2A), sequence (Q7L0J3 whole entry, species assumed): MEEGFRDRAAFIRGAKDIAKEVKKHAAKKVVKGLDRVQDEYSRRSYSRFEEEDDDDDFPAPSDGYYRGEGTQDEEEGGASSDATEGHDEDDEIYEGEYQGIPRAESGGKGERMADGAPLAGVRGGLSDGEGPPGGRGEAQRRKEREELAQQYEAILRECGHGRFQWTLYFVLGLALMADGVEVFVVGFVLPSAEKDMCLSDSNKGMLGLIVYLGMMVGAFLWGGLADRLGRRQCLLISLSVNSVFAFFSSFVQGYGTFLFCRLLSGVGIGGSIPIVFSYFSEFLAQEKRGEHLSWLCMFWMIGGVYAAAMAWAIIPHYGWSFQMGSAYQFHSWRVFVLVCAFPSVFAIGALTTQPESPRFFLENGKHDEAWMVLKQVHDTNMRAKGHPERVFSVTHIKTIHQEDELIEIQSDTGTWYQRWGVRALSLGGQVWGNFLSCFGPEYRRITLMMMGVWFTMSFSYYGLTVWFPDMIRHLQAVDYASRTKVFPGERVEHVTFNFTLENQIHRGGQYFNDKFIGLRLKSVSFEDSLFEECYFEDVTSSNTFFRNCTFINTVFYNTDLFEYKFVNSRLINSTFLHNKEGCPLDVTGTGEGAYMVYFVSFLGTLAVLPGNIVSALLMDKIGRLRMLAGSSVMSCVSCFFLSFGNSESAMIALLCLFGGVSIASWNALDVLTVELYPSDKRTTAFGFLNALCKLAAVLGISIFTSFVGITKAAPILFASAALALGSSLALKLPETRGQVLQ

## COc1cc2c(cc1OC)C(=O)C(CC1CCN(Cc3ccccc3)CC1)C2 (stereo not shown) [donepezil, 2,3-dihydro-5,6-dimethoxy-2-((1-(phenylmethyl)-4-piperidinyl)methyl)-1H-inden-1-one]
[1]; donepezil 1 mg/kg/day alone, two-hour delay RAM, t(7)=0, p=1.00
  memory performance relative to vehicle control treatment: does not significantly improve memory performance
[1]; donepezil 1 mg/kg/day i.p., two-hour delay RAM, AI rats n=8, vehicle control 2.88±0.67
  average no. of errors ± standard error of the mean (SEM), retention test: 2.88±0.46
[1]; donepezil 2 mg/kg/day alone, two-hour delay RAM, t(7)=0.91, p=0.930
  memory performance relative to vehicle control treatment: does not significantly improve memory performance
[1]; donepezil 2 mg/kg/day i.p., two-hour delay RAM, AI rats n=8, vehicle control 2.88±0.67
  average no. of errors ± SEM, retention test: 2.81±0.43

## CC[C@@H](C(N)=O)N1CCCC1=O [levetiracetam, (2S)-2-(2-oxopyrrolidin-1-yl) butanamide]
[2]
  performance in the explicit 3-alternative forced choice task: improves significantly
[3]
  entorhinal cortex (EC) activity during memory judgments: increases EC activity
[3]; p=0.037
  DG/CA3 activity during lure stimuli correctly identified as "similar": reduces DG/CA3 hyper-activity
[1]; AI rats, given acutely
  effective doses of levetiracetam used in the animal model: 5 to 10 mg/kg
[1]; levetiracetam 2.5 mg/kg/day individually, in the absence of donepezil
  memory performance in AI rats: does not significantly improve memory performance
[1]; levetiracetam 5 mg/kg/day i.p., one-hour delay RAM, AI rats n=10, vehicle control 2.00±0.42
  average no. of errors ± standard error of the mean (SEM), retention test: 0.75±0.32
[1]; levetiracetam 5 mg/kg/day, one-hour delay RAM, t(9)=2.18, p=0.057
  memory performance relative to vehicle control treatment: significantly improves memory performance
[1]; levetiracetam 10 mg/kg/day i.p., one-hour delay RAM, AI rats n=10, vehicle control 2.00±0.42
  average no. of errors ± SEM, retention test: 0.80±0.27
[1]; levetiracetam 10 mg/kg/day, one-hour delay RAM, t(9)=2.37, p=0.042
  memory performance relative to vehicle control treatment: significantly improves memory performance
[1]; levetiracetam 20 mg/kg
  performance of AI rats in the radial maze task: fails to improve the performance
[4]
  performance in Benton Visual Retention Test: fail to rescue performance
  performance in Buschke Selective Reminding Test—Delayed Recall: fail to rescue performance
  performance in Verbal Paired Associates Test—Delayed Recall: fail to rescue performance
  performance in Verbal Paired Associates Test—Recognition: fail to rescue performance
[5]; after oral administration
  absorption: rapidly and almost completely absorbed
[5]; expected in elderly due to decreased renal function
  plasma half-life: 9 to 10 h
[5]; following oral administration
  time of peak plasma concentrations: about 1 hour
[5]; in vivo
  plasma half-life: approximately 7±1 hour
[5]; multiple twice-daily dosing
  time to steady state: 2 days
[5]; oral
  bioavailability, effect of food: not affected by food
[6]
  binding to SV2A: binds to a specific site in the CNS: the synaptic vesicle protein 2A (SV2A)
